Laboratory results from ChEMBL document CHEMBL1132097, “Fluorobenzamidrazone thrombin inhibitors: influence of fluorine on enhancing oral absorption” (Bioorg Med Chem Lett, 1999).

Key:
[1] = target: T1, Serine protease 1 (Bos taurus, UniProt P00760); assay: Inhibitory constant against bovine trypsin was determined in vitro
T1 sequence (P00760 whole entry): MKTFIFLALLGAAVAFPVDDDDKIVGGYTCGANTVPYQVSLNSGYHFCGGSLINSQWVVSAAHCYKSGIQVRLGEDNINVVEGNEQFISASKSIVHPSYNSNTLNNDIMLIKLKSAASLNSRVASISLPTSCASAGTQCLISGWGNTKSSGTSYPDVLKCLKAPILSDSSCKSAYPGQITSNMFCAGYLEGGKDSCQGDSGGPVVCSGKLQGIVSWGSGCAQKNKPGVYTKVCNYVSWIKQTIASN

[2] = Absorption behavior was judged by the peak blood concentration determined after oral dose of 30 mg/kg in rats.; assay type: ADME, organism-based; parameters: dose 30 mg/kg, route oral; conditions: rat
[3] = Absorption behavior was judged by the area under the curve, determined after oral dose of 30 mg/kg in rats.; assay type: ADME, organism-based; parameters: dose 30 mg/kg, route oral; conditions: rat, in vivo
[4] = target: T2, Prothrombin (Homo sapiens, UniProt P00734); assay: Inhibitory constant against human thrombin was determined in vitro
[5] = target: T1, Serine protease 1; assay: Inhibitory constant against bovine trypsin was determined in vitro.
[6] = target: T2, Prothrombin; assay: Inhibitory constant against human thrombin was determined in vitro.

Row | SMILES | Ki [1] [nM] | Cmax [2] [nM] | AUC [3] [µM·h] | Ki [4] [nM] | Ki [5] [nM] | Ki [6] [nM]
1 | CN(C(=O)[C@H](Cc1ccc(C(N)=NN)cc1)NS(=O)(=O)c1ccc2c(c1)CCCC2)C1CCCC1 |  | 360 | 0.817 |  | 4600 | 0.1
2 | COc1ccc2cc(S(=O)(=O)N[C@@H](Cc3ccc(C(N)=NN)cc3)C(=O)N(C)C3CCCC3)ccc2c1 |  | 1130 | 2.62 |  | 9200 | 0.06
3 | CN(C(=O)[C@H](Cc1ccc(C(=N)NN)cc1F)NS(=O)(=O)c1ccc2c(c1)CCCC2)C1CCCC1 |  | 1030 | 1.37 |  | 3000 | 0.5
4 | CCCc1ccc(S(=O)(=O)N[C@@H](Cc2ccc(C(N)=NN)cc2F)C(=O)N(C)C2CCCC2)cc1 |  | 1350 | 2.68 |  | 4000 | 0.7
5 | CN(C(=O)[C@H](Cc1ccc(C(N)=NN)c(F)c1)NS(=O)(=O)c1ccc2ccccc2c1)C1CCCC1 |  | 4130 | 6.67 |  | 25000 | 5.5

Further lines, results first:

Row | Ki [1] [nM] | Cmax [2] [nM] | AUC [3] [µM·h] | Ki [4] [nM] | Ki [5] [nM] | Ki [6] [nM] | SMILES
6 | 3500 | 1170 | 2.23 | 0.2 |  |  | CCCc1ccc(S(=O)(=O)N[C@@H](Cc2ccc(C(N)=NN)cc2)C(=O)N(C)C2CCCC2)cc1
7 |  | 1630 | 1.83 |  | 11000 | 2 | CN(C(=O)[C@H](Cc1ccc(C(=N)NN)cc1F)NS(=O)(=O)c1ccc2ccccc2c1)C1CCCC1
8 |  | 1340 | 1.63 |  | 25000 | 0.9 | CN(C(=O)[C@H](Cc1ccc(C(N)=NN)c(F)c1)NS(=O)(=O)c1ccc2c(c1)CCCC2)C1CCCC1
9 |  | 2410 | 3.28 |  | 2000 | 0.2 | COc1ccc2cc(S(=O)(=O)N[C@@H](Cc3ccc(C(N)=NN)cc3F)C(=O)N(C)C3CCCC3)ccc2c1
10 |  | 1610 | 2.33 |  | 33000 | 0.4 | CN(C(=O)[C@H](Cc1ccc(C(=N)NN)cc1)NS(=O)(=O)c1ccc2ccccc2c1)C1CCCC1
11 |  | 2780 | 4.17 |  | 22000 | 1.8 | CCCc1ccc(S(=O)(=O)N[C@@H](Cc2ccc(C(=N)NN)c(F)c2)C(=O)N(C)C2CCCC2)cc1
